# What was measured:
# NCI-H1373 = experiment: 3D cell proliferation assay, KRAS G12C mutant cell line NCI-H1373; format: cell-based; conditions: Homo sapiens, 168 h, 7 day
# Procedure: (§1) Growth inhibition assays was carried out using 10% FBS supplemented media. Cells were seeded at a desired concentration of 1000-6000 cells/well in a well plate with desired number of wells. Test compounds at a desired concentration range were added after 24 hours. Growth was assessed using the Cell Titer-Glo (CTG. Cell Signaling) for measuring reduction at 0 h (prior to the addition of the test compound) and 3 day (2D) or 7 day (3D) after the addition of test compound. Absorbance read on a BIO-RAD iMark Microplate or any equivalent microplate reader at a predetermined a wavelength for e.g. 450 nm. Data was be analysed and percent inhibition and/or IC50 for each test compound is calculated accordingly. Results: Data provide for a representative Cpd A across various cell lines including selectivity
# NCI-H1792 = experiment: 3D cell proliferation assay, KRAS G12C mutant cell line NCI-H1792; format: cell-based; conditions: Homo sapiens, 168 h, 7 day
# Procedure: as §1
# NCI-H23 = experiment: 3D cell proliferation assay, KRAS G12C mutant cell line NCI-H23; format: cell-based; conditions: Homo sapiens, 168 h, 7 day
# Procedure: as §1
# Calu-1 = experiment: 3D cell proliferation assay, KRAS G12C mutant cell line Calu-1; format: cell-based; conditions: Homo sapiens, 168 h, 7 day
# Procedure: as §1
# SW-837 = experiment: 3D cell proliferation assay, KRAS G12C mutant cell line SW-837; format: cell-based; conditions: Homo sapiens, SW837, 168 h, 7 day
# Procedure: as §1
# SW1463 = experiment: 3D cell proliferation assay, KRAS G12C mutant cell line SW1463; format: cell-based; conditions: Homo sapiens, 168 h, 7 day
# Procedure: as §1
# eCT26 = experiment: 3D cell proliferation assay, eCT26 (engineered for KRASG12C mutation); format: cell-based; conditions: 168 h, 7 day
# Procedure: as §1
# CO-04-0070 = experiment: 3D cell proliferation assay, CO-04-0070 patient derived cell line; format: cell-based; conditions: 168 h, CO-04-0070 (PDC), 7 day
# Procedure: as §1
# A549 = experiment: 2D cell proliferation assay, non-KRAS G12C mutant cell line A549; format: cell-based
# Procedure: as §1
# HCT116 = experiment: 2D cell proliferation assay, non-KRAS G12C mutant cell line HCT116; format: cell-based
# Procedure: as §1
# human KRAS G12C protein = human KRAS G12C protein (Homo sapiens, UniProt P01116, G12C); experiment: HTRF-based nucleotide exchange assay detecting GTP binding to K-Ras; format: biochemical; conditions: KRAS G12C (aa 2-169), SOS1 (aa 564-1049), read-out: IC50, SOS1 mediated nucleotide exchange
# Procedure: Compounds (each 10 concentrations or any other concentration of choice at 3-fold or fold of choice for serial dilutions with a starting concentration of ˜300 um or 100 μM or 50 uM) were then delivered to the reaction wells using acoustic dispenser (Echo, Labcyte) and incubated with the Kras/aGST-Tb antibody for 1-hour at room temperature. After 1-hour incubation 5 μL of SOS1/GTP solution (SOS1—(corresponding to amino acid 564-1049) and GDP-DY-647P1 prepared using reaction buffer-20 mM Hepes, pH7.4, 150 mM Nacl, 5 mM MgCl2, 1 mM DTT, 0.05% BSA, 0.0025% NP40) was added to reaction wells to initiate the exchange reaction. HTRF based SOS1 mediated exchange of GDP to GTP was measured on a microplate reader PEHRAstar (BMG Labtech) at an excitation wavelength of 337 nm and emission wavelengths of 665 and 620 nm. No-SOS1 reaction or highest control compound concentration was used as blank and % inhibition was calculated and/or IC50 was determined using Sigmoidal dose response (variable slope) equation.
# [1] = tested on: NCI-H358 Human Non-Small Cell Lung Cancer Xenograft; experiment: Anti-tumor effect in female Balb/c nude mice bearing NCI-H358 xenograft; format: in vivo
# Procedure: NCI-H358 Xenograft was used to test representative compound of the invention where in NCI-H358 cells were inoculated in a mice model representing Lung Cancer with […] comprising of Control (Vehicle treated, GI) and two treatment cohorts/group namely Paclitaxel as standard (10 mg/kg Q3D, IV, G3) and test compound (100 mg/kg QD, Cpd A, G3) with each cohorts/group. Treatment was initiated when maximum tumor growth reached >200 mm3 and continued till the Vehicle are reached a maximum tumor volume of 2000 mm3.
# Chain of human KRAS G12C protein (P01116 2-169 isoform P01116-2 G12C): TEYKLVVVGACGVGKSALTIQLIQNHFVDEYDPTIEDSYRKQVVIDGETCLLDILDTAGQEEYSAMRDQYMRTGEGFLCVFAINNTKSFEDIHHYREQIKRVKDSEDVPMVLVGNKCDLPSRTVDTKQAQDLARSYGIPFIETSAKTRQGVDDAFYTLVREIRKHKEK
compound,measurement,setting,value
"C=CC(=O)N1CCN(c2nc(OC[C@@H]3CCCN3C)c(C#N)c3c2CCN(c2cccc4cccc(Cl)c24)C3)C[C@@H]1CC#N (single isomer, unassigned) [Ex 25]",IC50,NCI-H1373,100 to 200 nM
same,IC50,NCI-H1792,200 to 1000 nM
same,IC50,NCI-H23,100 to 200 nM
same,IC50,Calu-1,100 to 200 nM
same,IC50,SW-837,100 to 200 nM
same,IC50,SW1463,< 100 nM
same,IC50,eCT26,< 100 nM
same,IC50,CO-04-0070,100 to 200 nM
same,Fold Selectivity over KRAS G12C Mutant Cell Line,A549,ΩΩΩ (ΩΩΩ >600 fold)
same,Fold Selectivity over KRAS G12C Mutant Cell Line,HCT116,Ω (Ω = >100 fold)
same,IC50,human KRAS G12C protein,< 10 nM
same,reduction in tumour volume as compared to Paclitaxel,"[1]; 100 mg/kg QD vs Paclitaxel 10 mg/kg Q3DX3 Weeks, IV",statistically significant reduction
same,Tumor Growth inhibition (TGI),"[1]; 100 mg/kg QD, NCI-H358 xenograft, n=5",> 65%
same,reduction in tumor volume,"[1]; 100 mg/kg QD, from day 3 onwards, P<0.01",statistically significant
same,effect on overall body weight,[1]; over the 21-day study period,No significant effect

# — patent US20240300942A1, “SMALL MOLECULES FOR TREATEMENT OF CANCER” (VRise Therapeutics Inc., priority 2021, published 2024)
